Experimental data: ChEMBL document CHEMBL5576065, “Identification of highly potent and selective HTRA1 inhibitors” (Bioorg Med Chem Lett, 2024)
Calls of active or inactive are those of the source. No cut-off for these calls is given here. Square brackets hold non-standard residues; d marks the D form. Peptide text beside a SMILES is read from it. * marks the point of attachment. hMet = CSCCC[C@H](N)C(=O)O; X1 = CC(C)[C@H](N*)B(O)O

How the values were obtained:
Serine protease HTRA1 [1] = biological target: T1, Serine protease HTRA1 (Homo sapiens, UniProt Q92743); assay: Inhibition of HTRA1 (unknown origin)
T1 sequence (Q92743 whole entry): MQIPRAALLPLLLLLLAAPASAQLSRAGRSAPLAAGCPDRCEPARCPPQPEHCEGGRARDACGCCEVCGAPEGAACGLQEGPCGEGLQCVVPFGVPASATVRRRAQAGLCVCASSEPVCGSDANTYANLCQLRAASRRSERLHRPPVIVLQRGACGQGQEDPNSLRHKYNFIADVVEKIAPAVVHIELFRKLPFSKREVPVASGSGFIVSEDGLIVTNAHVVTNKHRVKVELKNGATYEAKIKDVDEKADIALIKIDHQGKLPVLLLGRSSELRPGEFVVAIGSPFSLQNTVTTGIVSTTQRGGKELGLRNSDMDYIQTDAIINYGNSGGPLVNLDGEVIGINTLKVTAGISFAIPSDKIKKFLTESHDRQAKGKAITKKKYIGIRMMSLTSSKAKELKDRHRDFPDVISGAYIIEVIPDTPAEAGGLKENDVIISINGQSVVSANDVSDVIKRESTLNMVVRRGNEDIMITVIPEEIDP

Caspase-6 (Homo sapiens) = biological target: T2, Caspase-6 (Homo sapiens) (UniProt P55212); assay: Inhibition of Caspase-6 (unknown origin) at 1 uM
T2 sequence (whole entry): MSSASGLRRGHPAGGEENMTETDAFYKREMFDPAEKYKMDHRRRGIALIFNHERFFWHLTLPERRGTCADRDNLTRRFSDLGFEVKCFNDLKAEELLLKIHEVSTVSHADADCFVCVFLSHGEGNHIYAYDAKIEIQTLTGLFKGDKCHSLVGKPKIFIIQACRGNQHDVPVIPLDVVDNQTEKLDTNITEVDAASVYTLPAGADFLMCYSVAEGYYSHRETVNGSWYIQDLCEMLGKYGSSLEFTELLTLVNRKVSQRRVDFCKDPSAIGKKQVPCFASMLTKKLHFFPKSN

[2] = biological target: Kallikrein-7 (Homo sapiens) (UniProt P49862); assay: Inhibition of kallikrein-7 (unknown origin) at 1 uM
Chain of Kallikrein-7 (Homo sapiens) (P49862 30-253 limits assumed): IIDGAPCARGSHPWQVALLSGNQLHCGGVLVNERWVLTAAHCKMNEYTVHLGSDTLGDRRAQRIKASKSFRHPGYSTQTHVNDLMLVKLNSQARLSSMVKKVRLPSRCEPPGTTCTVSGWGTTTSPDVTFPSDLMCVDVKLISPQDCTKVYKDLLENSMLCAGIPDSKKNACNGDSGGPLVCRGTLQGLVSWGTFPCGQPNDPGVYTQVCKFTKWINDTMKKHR

[3] = biological target: Chymotrypsin (Homo sapiens) (UniProt Q99895+P17538+P40313+Q6GPI1); assay: Inhibition of chymotrypsin (unknown origin) at 1 uM; format: protein assay
Serine protease HTRA1 [4] = biological target: T1, Serine protease HTRA1; assay: Inhibition of HTRA1 (unknown origin) assessed as residual activity at 1 uM relative to control
Caspase-9 (Homo sapiens) = biological target: T3, Caspase-9 (Homo sapiens) (UniProt P55211); assay: Inhibition of Caspase-9 (unknown origin) at 1 uM
T3 sequence (whole entry): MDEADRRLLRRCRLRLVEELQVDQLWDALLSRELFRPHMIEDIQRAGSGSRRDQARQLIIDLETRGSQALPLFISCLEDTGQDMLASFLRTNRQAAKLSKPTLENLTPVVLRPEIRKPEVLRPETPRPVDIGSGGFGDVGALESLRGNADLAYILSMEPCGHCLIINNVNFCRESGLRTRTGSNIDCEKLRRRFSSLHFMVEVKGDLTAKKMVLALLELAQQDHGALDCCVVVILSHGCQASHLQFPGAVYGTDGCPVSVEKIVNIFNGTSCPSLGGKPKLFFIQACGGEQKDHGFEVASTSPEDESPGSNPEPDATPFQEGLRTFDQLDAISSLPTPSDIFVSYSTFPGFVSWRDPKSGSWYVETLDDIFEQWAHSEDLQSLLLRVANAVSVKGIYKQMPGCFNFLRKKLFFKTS

IC50 (Serine protease HTRA1 [1]) [nM]	SMILES	further results
73	CC(C)C[C@H](NC(=O)[C@H](Cc1ccc(Cl)cc1)NC(=O)OCc1ccccc1)C(=O)N[C@H](B(O)O)C(C)C	
88	CC(C)C[C@H](NC(=O)[C@H](Cc1cccc(F)c1)NC(=O)OCc1ccccc1)C(=O)N[C@H](B(O)O)C(C)C	
1920	CCCCC[C@H](NC(=O)OCc1ccccc1)C(=O)N[C@@H](CC(C)C)C(=O)N[C@H](B(O)O)C(C)C	
495	CC(C)C[C@H](NC(=O)[C@H](Cc1cccc(Cl)c1)NC(=O)NCc1ccccc1)C(=O)N[C@H](B(O)O)C(C)C	
1540	CC(C)C[C@H](NC(=O)[C@H](Cc1cc[n+]([O-])cc1)NC(=O)OCc1ccccc1)C(=O)N[C@H](B(O)O)C(C)C	
2600	CSCCC[C@H](NC(=O)[C@@H]1CCCN1C(=O)[C@@H](N)CC(=O)O)C(=O)N[C@@H](Cc1ccccc1)C(=O)N[C@@H](CCCCN)C(=O)N[C@@H](CC(C)C)C(=O)N[C@H](B(O)O)C(C)C (H-DP[hMet]FKL-X1)	
13	CC(C)C[C@H](NC(=O)[C@H](Cc1cccc(Cl)c1)NC(=O)C(C)(C)Cc1ccccc1)C(=O)N[C@H](B(O)O)C1CCC1	inhibition (Caspase-6 (Homo sapiens)): inactive; inhibition [2]: inactive; inhibition [3]: inactive; Activity (Serine protease HTRA1 [4]): 0%; inhibition (Caspase-9 (Homo sapiens)): inactive
104	CC(C)C[C@H](NC(=O)[C@H](Cc1cccc(Cl)c1)NC(=O)CCc1ccccc1)C(=O)N[C@H](B(O)O)C(C)C	
4900	CC(C)C[C@H](NC(=O)[C@H](Cc1cccc(Cl)c1)NCCCc1ccccc1)C(=O)N[C@H](B(O)O)C(C)C	
17	CC(C)C[C@H](NC(=O)[C@H](Cc1cccc(Br)c1)NC(=O)OCc1ccccc1)C(=O)N[C@H](B(O)O)C(C)C	
45	Cc1cccc(C[C@H](NC(=O)OCc2ccccc2)C(=O)N[C@@H](CC(C)C)C(=O)N[C@H](B(O)O)C(C)C)c1	
10	CC(C)C[C@H](NC(=O)[C@H](Cc1cccc(Cl)c1)NC(=O)OCc1ccccc1)C(=O)N[C@H](B(O)O)C(C)C	inhibition (Caspase-6 (Homo sapiens)): inactive; inhibition [2]: inactive; inhibition [3]: inactive; Activity (Serine protease HTRA1 [4]): 0%; inhibition (Caspase-9 (Homo sapiens)): inactive
15300	CC(C)C[C@H](NC(=O)[C@H](CCCCN)NC(=O)OCc1ccccc1)C(=O)N[C@H](B(O)O)C(C)C	
11	CC(C)C[C@H](NC(=O)[C@H](Cc1cccc(Cl)c1)NC(=O)C(C)(C)Cc1ccccc1)C(=O)N[C@H](B(O)O)C(C)C	
466	CC(C)C[C@H](NC(=O)[C@H](CC1CCCCC1)NC(=O)OCc1ccccc1)C(=O)N[C@H](B(O)O)C(C)C	
411	CC(C)C[C@H](NC(=O)[C@H](Cc1ccccc1)NC(=O)OCc1ccccc1)C(=O)N[C@H](B(O)O)C(C)C	
654	CC(C)C[C@H](NC(=O)[C@H](Cc1ccc[n+]([O-])c1)NC(=O)OCc1ccccc1)C(=O)N[C@H](B(O)O)C(C)C	
